Patent EP3932936A1, “POLYPEPTIDE HAVING ANTIBACTERIAL ACTIVITY, COMPOSITION FOR PREVENTING OR TREATING SEPSIS COMPRISING SAME, AND ANTIBACTERIAL COMPOSITION” (Dandi Bioscience Inc, priority 2019, dated 2022)
No end group written: not given here.

Columns and labels:
[1] = LPS binding affinity (Kd) by Isothermal Titration Calorimeter (ITC); design: species or system E. coli K1; settings: stated in words relative to FP1 (wild type, WT)
Source text: FP1 (ADK 44-54) is denoted by wild type (WT), and peptides in which a point mutation occurred at various sites in WT were manufactured (FP3, FP5, FP6, and FP9). To increase the interaction with LPS in a residue sequence of FP3, peptides were designed based on FP3- and LPS-binding models (FP12-NH2 and FP13-NH2), and peptides were designed by additionally introducing a non-natural amino acid and an amino acid isomer (allomeric D-type amino acid) (allD FP12-NH2, allD FP13-NH2, allD FP-13-9a, allD FP-13-9w, allD FP-13-9k, and allD FP13-NH2 (AcOH)). In addition, an N-terminus PEGylated peptide (PEG-alld FP13-NH2 (AcOH)) was additionally designed, synthesized, and provided by ANYGEN, Co. Ltd. The binding affinity between each of the provided peptides and lipopolysaccharide (LPS) was confirmed through measuring the binding affinity (Kd) using Isothermal Titration Calorimeter (ITC).
Specifically, a method of analyzing binding affinity (Kd) between a peptide and LPS is as follows.
Measurement was carried out using a Malvern MicroCal PEAQ-ITC cell instrument, and the following pretreatment was carried out to confirm interaction with LPS. The amount and morphology of a sample cell are 300 µL and coin-shaped, fixed-in-place, respectively; a syringe rotation rate was 1,200 rpm; and a temperature was 30 °C, 35 °C or 25 °C.
Before the experiment, LPS and the peptide were previously diluted with PBS, thereby preparing 2 mM LPS and 0.2 mM peptide. 300 µL of the peptide was added into cells in the ITC instrument, which had been washed, and 40 µL of LPS was put into a syringe. After measurement conditions for ITC (temperature, number of injections) were set, the syringe was inserted into the cell, and ITC measurement was started. When the measurement was completed, analysis is performed, and the Kd values of LPS and the peptide were calculated.

S. aureus = settings: after treatment with proteolytic enzyme
[2] = Calcein dye leakage from liposome mimicking red blood cell membrane; settings: for dye leakage: PC/CH (1:1, w/w) liposome mimicking a red blood cell membrane in a mammal, FIG. 3
Protocol: (§1) To study an action mechanism for FP12-NH2, FP13-NH2, allD FP12-NH2, and allD FP13-NH2 peptides, the disruption ability of the peptides against liposomes mimicking a bacterial cell membrane and a red blood cell membrane was measured.
(§2) EYPG is an abbreviation for egg yolk L-α-phosphatidyl-DL-glycerol, and EYPC is an abbreviation for egg yolk 1,2-diacyl-sn-glycero-3-phosphocholine. CH is an abbreviation for cholesterol. After dissolving the phospholipids composed according to the content of each component in chloroform, the chloroform was removed using a rotary evaporator, and lyophilization was performed overnight. Afterward, the dried lipid film was dissolved in a Tris-buffer solution, and calcein […]. After repeated freezing and thawing, the calcein-encapsulated liposome was manufactured using an extruder. Subsequently, after an excitation wavelength of a spectrofluorimeter (Shimadzu RF 5301 PC spectrofluorimeter, Japan) was set to 490 nm, and an emission wavelength was set to 520 nm, the peptide was administered to the liposome to measure relative dye leakage, provided that a 100% dye leakage was expressed as fluorescence intensity when 0.01% Triton-Xioo was added.
The upper graphs of FIG. 3 show the % dye leakage for an EYPC/EYPG (7:3, w/w) liposome mimicking bacterial cells, encapsulating a fluorescent dye, calcein, by a peptide according to a peptide concentration. […] The lower graphs of FIG. […]

red blood cells = experiment: Red blood cell hemolytic activity; format: cell-based, human; settings: even at a low concentration; control peptide
Protocol: The following experiment was carried out to determine the toxicity of a peptide through measurement of the red blood cell hemolytic activity in a human.
The red blood cells in a human were diluted with PBS for washing, and centrifuged for 10 minutes, the washing process was repeated three times. The 8.0% red blood cell solution diluted with PBS was loaded into a 96-well microtiter plate by 100 µL and 100 µL of a peptide solution was mixed, the mixture was incubated at 37 °C for 1 hour, and then the 96-well microtiter plate was centrifuged for 5 minutes. A 100 µL of supernatant was taken and transferred to another 96-well microtiter plate, and then absorbance was measured at 405 nm. Here, a value obtained when treated with 0.1% Triton X-100 was calculated as 100% hemolysis, and the hemolytic activity of the peptide was calculated as % hemolysis by Equation 1 below. Cell disruption rate(%Hemolysis) = (A−C)/(B−C) × 100 [formula]
Here, A is the absorbance at 405 nm in a peptide solution, B is the absorbance at 405 nm in a 0.1% Triton X-100, and C is the absorbance at 405 nm in a PBS solution.

[3] = Calcein dye leakage from liposome mimicking gram-negative bacterial cell membrane; settings: PC/PG (7:3, w/w) liposome; even at a low concentration
Protocol: as §1
as §2, with “added. […]” for “added.”

[4] = In vivo toxicity (survival rate for 72 hours); design: species or system ICR mice; settings: ratio of a drug dose exhibiting toxicity to a drug dose for exhibiting a desired response
Protocol: To confirm the therapeutic and pharmaceutical effects of an acetate salt substitution of allD FP13-NH2, a septic animal model induced by intraperitoneally administering each of the Escherichia coli (standard strain and ESBL) strains or a normal mouse was treated with the peptide allD FP13-NH2 (AcOH). The antibiotic effect, the toxicity, and the inhibitory activity of […] cytokine IL-6 of the salt substitution with those of the same peptide at the end of trifluoroacetic acid (TFA) were compared.
An experimental method is as follows: Six-week-old female ICR mice (SPF mice, Samtako) with an average body weight of 25 g were used as experimental animals. The experimental animals were provided with sterile feed and water and bred with less than 10 mice per cage, and a day/night cycle was 12 hours.
To evaluate in vivo toxicity, the mice were divided into groups (n=5 or 6 per group) per experiment, and intraperitoneally treated six times with allD FP13-NH2 (TFA) and allD FP13-NH2 (AcOH) mixed with […]'S DEX solution (vehicle) at 0, 1, 2, 3, 4, or 5 hours, followed by observing a survival rate at intervals of 12 hours for 72 hours.

In the case of KLRVKLRRKLR [allD FP-13-9k], the LPS binding affinity [1] is reported as “strong LPS binding affinity, which is equal to or higher than that of FP1”.

With `CC(C)C[C@@H](NC(=O)[C@H](N)CCCCN)C(=O)N[C@H](CCCNC(=N)N)C(=O)N[C@@H](C(=O)N[C@H](CCCCN)C(=O)N[C@H](CC(C)C)C(=O)N[C@H](CCCNC(=N)N)C(=O)N[C@H](CCCNC(=N)N)C(=O)N[C@H](Cc1ccc(O)cc1)C(=O)N[C@H](CC(C)C)C(=O)N[C@H](CCCNC(=N)N)C(N)=O)C(C)C` [allD FP13-NH2] the “stability (proteolytic enzyme resistance)” value (S. aureus) was “very high stability” and the dye leakage [2] was “almost no dye leakage”.

For `CC(C)C[C@H](NC(=O)[C@H](Cc1ccc(O)cc1)NC(=O)[C@H](CCCNC(=N)N)NC(=O)[C@H](CCCNC(=N)N)NC(=O)[C@H](CC(C)C)NC(=O)[C@H](CCCCN)NC(=O)[C@@H](NC(=O)[C@H](CCCNC(=N)N)NC(=O)[C@H](CC(C)C)NC(=O)[C@@H](N)CCCCN)C(C)C)C(=O)N[C@@H](CCCNC(=N)N)C(N)=O` [FP13-NH2], the dye leakage [2] was “almost no dye leakage”.

For melittin, the hemolytic activity (red blood cells) was 100%, the calcein leakage [3] was “responsible for calcein leakage” and the calcein leakage ([2]; PC/CH (10:1, w/w) liposome mimicking a human red blood cell, 0.25 µM) was about 100%.

In the case of KLRVKLRRALR [allD FP-13-9a], the LPS binding affinity [1] is reported as “strong LPS binding affinity, which is equal to or higher than that of FP1”.

For KLRVKLRRWLR [allD FP-13-9w], the LPS binding affinity [1] was “strong LPS binding affinity, which is equal to or higher than that of FP1”.

For `CC(C)C[C@@H](NC(=O)[C@H](N)CCCCN)C(=O)N[C@H](CCCNC(=N)N)C(=O)N[C@@H](C(=O)N[C@H](CCCCN)C(=O)N[C@H](CC(C)C)C(=O)N[C@H](CCCNC(=N)N)C(=O)N[C@H](CCCNC(=N)N)C(=O)N[C@H](Cc1ccc(O)cc1)C(=O)N[C@H](CC(C)C)C(=O)N[C@H](CCCNC(=N)N)C(N)=O)C(C)C` [allD FP13-NH2 (AcOH)], the “therapeutic index = LD50/ED50” value [4] was “greater than 80”.

With `CC(C)C[C@@H](NC(=O)[C@H](N)CCCNC(=N)N)C(=O)N[C@H](CCCNC(=N)N)C(=O)N[C@@H](C(=O)N[C@H](CCCCN)C(=O)N[C@H](CC(C)C)C(=O)N[C@H](CCCNC(=N)N)C(=O)N[C@H](CCCNC(=N)N)C(=O)N[C@H](Cc1ccc(O)cc1)C(=O)N[C@H](CC(C)C)C(=O)N[C@H](CCCNC(=N)N)C(N)=O)C(C)C` [allD FP12-NH2] the “stability (proteolytic enzyme resistance)” value (S. aureus) was “very high stability” and the dye leakage [2] was “almost no dye leakage”.

With `CC(C)C[C@H](NC(=O)[C@H](Cc1ccc(O)cc1)NC(=O)[C@H](CCCNC(=N)N)NC(=O)[C@H](CCCNC(=N)N)NC(=O)[C@H](CC(C)C)NC(=O)[C@H](CCCCN)NC(=O)[C@@H](NC(=O)[C@H](CCCNC(=N)N)NC(=O)[C@H](CC(C)C)NC(=O)[C@@H](N)CCCNC(=N)N)C(C)C)C(=O)N[C@@H](CCCNC(=N)N)C(N)=O` [FP12-NH2] the dye leakage [2] was “almost no dye leakage”.
